Measured values as given in the supplement of paper PMC10307832.

compound: CC(C)C[C@H](NC(=O)[C@H](CCc1ccccc1)NC(=O)CN1CCOCC1)C(=O)N[C@@H](Cc1ccccc1)C(=O)N[C@@H](CC(C)C)C(=O)[C@@]1(C)CO1 [Carfilzomib] + CC(C)C[C@H](NC(=O)[C@H](Cc1ccccc1)NC(=O)c1cnccn1)B(O)O [Bortezomib] (partner 0.002 µM); test: relative viability (nuclei count vs DMSO), 5 days (fraction); higher = more cells survive; details: first compound 0.001 µM
Procedure, shortened: (§1)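 After 5 days of treatment, lung cancer cells in 1536-well plates were fixed and stained in a single step (final 0.05% Triton X-100, 1% formaldehyde, 1 ug/ml Hoechst) and their nuclei counted on 4× images. Treatment had been applied by pin tool the day after seeding as one drug alone or as a fixed anchor-drug dose with five library-drug doses (not always all listed) in √10 steps. Relative viability is the nuclei count of treated wells divided by that of vehicle wells, and values are medians of duplicate plates.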

Q: Which relative viability does the source give for 201T here?
A: 1.09

Q: A-427 was tested. Which relative viability did it give?
A: 0.995

Q: For ABC-1, which relative viability is on record?
A: 0.334

Q: For BEN, which relative viability is on record?
A: 0.518

Q: Which relative viability does the source give for COR-L23 here?
A: 0.94

Q: COR-L 105 was tested. Which relative viability did it give?
A: 0.724

Q: Which relative viability does the source give for Calu-6 here?
A: 0.886

Q: For EBC-1, which relative viability is on record?
A: 0.524

Q: Which relative viability does the source give for EKVX here?
A: 1.03

Q: EMC-BAC-2 was tested. Which relative viability did it give?
A: 1.03

Q: EPLC-272H was tested. Which relative viability did it give?
A: 0.738

Q: Which relative viability does the source give for H3255 here?
A: 0.765

Q: How did the relative viability turn out when HARA was run?
A: 1.2

Q: How did the relative viability turn out when HCC-15 was run?
A: 0.979

Q: For HCC-44, which relative viability is on record?
A: 0.876

Q: How did the relative viability turn out when HCC-78 was run?
A: 0.474

Q: Which relative viability does the source give for HCC-366 here?
A: 0.891

Q: Which relative viability does the source give for HCC-827 here?
A: 1.01

Q: Which relative viability does the source give for HOP-62 here?
A: 0.531

Q: With IA-LM as the cell line, how does the relative viability read?
A: 0.843

Q: Which relative viability does the source give for LC-2-ad here?
A: 0.947

Q: For LCLC-97TM1, which relative viability is on record?
A: 0.292

Q: LCLC-103H was tested. Which relative viability did it give?
A: 1

Q: LOU-NH91 was tested. Which relative viability did it give?
A: 0.438

Q: For NCI-H441, which relative viability is on record?
A: 0.25

Q: NCI-H1299 was tested. Which relative viability did it give?
A: 0.997

Q: With NCI-H1703 as the cell line, how does the relative viability read?
A: 0.216

same assay, conditions: first compound 0.003162 µM

Q: Which relative viability does the source give for 201T here?
A: 1.06

Q: For A-427, which relative viability is on record?
A: 0.963

Q: For ABC-1, which relative viability is on record?
A: 0.231

Q: For BEN, which relative viability is on record?
A: 0.929

Q: How did the relative viability turn out when CAL-12T was run?
A: 1.17

Q: Which relative viability does the source give for COR-L23 here?
A: 0.877

Q: For COR-L 105, which relative viability is on record?
A: 0.658

Q: Which relative viability does the source give for Calu-6 here?
A: 0.713

Q: For ChaGo-K-1, which relative viability is on record?
A: 1.25

Q: EBC-1 was tested. Which relative viability did it give?
A: 0.317

Q: With EKVX as the cell line, how does the relative viability read?
A: 1.08

Q: Which relative viability does the source give for EMC-BAC-2 here?
A: 1.06

Q: For EPLC-272H, which relative viability is on record?
A: 0.626

Q: With H3255 as the cell line, how does the relative viability read?
A: 0.769

Q: For HARA, which relative viability is on record?
A: 1.05

Q: For HCC-15, which relative viability is on record?
A: 0.978

Q: With HCC-44 as the cell line, how does the relative viability read?
A: 0.917

Q: Which relative viability does the source give for HCC-78 here?
A: 0.514

Q: For HCC-366, which relative viability is on record?
A: 0.966

Q: Which relative viability does the source give for HCC-827 here?
A: 1.01

Q: For HOP-62, which relative viability is on record?
A: 0.475

Q: Which relative viability does the source give for IA-LM here?
A: 0.673

Q: For LC-2-ad, which relative viability is on record?
A: 1.08

Q: Which relative viability does the source give for LCLC-97TM1 here?
A: 0.714

Q: For LCLC-103H, which relative viability is on record?
A: 1.14

Q: For LOU-NH91, which relative viability is on record?
A: 0.49

Q: For NCI-H441, which relative viability is on record?
A: 0.383

Q: How did the relative viability turn out when NCI-H1299 was run?
A: 1.09

Q: Which relative viability does the source give for NCI-H1703 here?
A: 0.167

same assay, conditions: first compound 0.01 µM

Q: Which relative viability does the source give for 201T here?
A: 1.1

Q: For A-427, which relative viability is on record?
A: 0.727

Q: Which relative viability does the source give for ABC-1 here?
A: 0.242

Q: With BEN as the cell line, how does the relative viability read?
A: 0.883

Q: How did the relative viability turn out when CAL-12T was run?
A: 1.13

Q: For COR-L23, which relative viability is on record?
A: 0.253

Q: How did the relative viability turn out when COR-L 105 was run?
A: 0.527

Q: Calu-6 was tested. Which relative viability did it give?
A: 0.299

Q: Which relative viability does the source give for ChaGo-K-1 here?
A: 0.851

Q: How did the relative viability turn out when EBC-1 was run?
A: 0.149

Q: How did the relative viability turn out when EKVX was run?
A: 1.14

Q: For EMC-BAC-2, which relative viability is on record?
A: 1.07

Q: How did the relative viability turn out when EPLC-272H was run?
A: 0.655

Q: Which relative viability does the source give for H3255 here?
A: 0.841

Q: Which relative viability does the source give for HARA here?
A: 0.394

Q: How did the relative viability turn out when HCC-15 was run?
A: 1.01

Q: Which relative viability does the source give for HCC-44 here?
A: 0.897

Q: For HCC-78, which relative viability is on record?
A: 0.402

Q: For HCC-366, which relative viability is on record?
A: 1.07

Q: With HCC-827 as the cell line, how does the relative viability read?
A: 1.06

Q: Which relative viability does the source give for HOP-62 here?
A: 0.425

Q: For IA-LM, which relative viability is on record?
A: 0.584

Q: With LC-2-ad as the cell line, how does the relative viability read?
A: 0.482

Q: LCLC-97TM1 was tested. Which relative viability did it give?
A: 0.268

Q: Which relative viability does the source give for LCLC-103H here?
A: 0.678

Q: How did the relative viability turn out when LOU-NH91 was run?
A: 0.362

Q: How did the relative viability turn out when NCI-H441 was run?
A: 0.14

Q: Which relative viability does the source give for NCI-H1299 here?
A: 1.02

Q: With NCI-H1703 as the cell line, how does the relative viability read?
A: 0.156

same assay, conditions: first compound 0.03162 µM

Q: With 201T as the cell line, how does the relative viability read?
A: 1.09

Q: With A-427 as the cell line, how does the relative viability read?
A: 0.436

Q: For ABC-1, which relative viability is on record?
A: 0.27

Q: With BEN as the cell line, how does the relative viability read?
A: 0.485

Q: CAL-12T was tested. Which relative viability did it give?
A: 0.691

Q: For COR-L23, which relative viability is on record?
A: 0.0785

Q: With COR-L 105 as the cell line, how does the relative viability read?
A: 0.265

Q: Which relative viability does the source give for Calu-6 here?
A: 0.119

Q: How did the relative viability turn out when ChaGo-K-1 was run?
A: 0.501

Q: EBC-1 was tested. Which relative viability did it give?
A: 0.119

Q: Which relative viability does the source give for EKVX here?
A: 0.285

Q: How did the relative viability turn out when EMC-BAC-2 was run?
A: 0.66

Q: For EPLC-272H, which relative viability is on record?
A: 0.105

Q: With H3255 as the cell line, how does the relative viability read?
A: 0.315

Q: With HARA as the cell line, how does the relative viability read?
A: 0.0539

Q: Which relative viability does the source give for HCC-15 here?
A: 0.481

Q: How did the relative viability turn out when HCC-44 was run?
A: 0.552

Q: How did the relative viability turn out when HCC-78 was run?
A: 0.192

Q: How did the relative viability turn out when HCC-366 was run?
A: 0.196

Q: Which relative viability does the source give for HCC-827 here?
A: 0.677

Q: How did the relative viability turn out when HOP-62 was run?
A: 0.0851

Q: With IA-LM as the cell line, how does the relative viability read?
A: 0.0124

Q: For LC-2-ad, which relative viability is on record?
A: 0.132

Q: For LCLC-97TM1, which relative viability is on record?
A: 0.0483

Q: How did the relative viability turn out when LCLC-103H was run?
A: 0.294

Q: How did the relative viability turn out when LOU-NH91 was run?
A: 0.26

Q: Which relative viability does the source give for NCI-H441 here?
A: 0.153

Q: With NCI-H1299 as the cell line, how does the relative viability read?
A: 0.986

Q: With NCI-H1703 as the cell line, how does the relative viability read?
A: 0.0967

same assay, conditions: first compound 0.1 µM

Q: With 201T as the cell line, how does the relative viability read?
A: 0.732

Q: Which relative viability does the source give for A-427 here?
A: 0.131

Q: ABC-1 was tested. Which relative viability did it give?
A: 0.225

Q: Which relative viability does the source give for BEN here?
A: 0.281

Q: How did the relative viability turn out when CAL-12T was run?
A: 0.195

Q: For COR-L23, which relative viability is on record?
A: 0.0696

Q: For COR-L 105, which relative viability is on record?
A: 0.239

Q: With Calu-6 as the cell line, how does the relative viability read?
A: 0.106

Q: ChaGo-K-1 was tested. Which relative viability did it give?
A: 0.381

Q: How did the relative viability turn out when EBC-1 was run?
A: 0.168

Q: Which relative viability does the source give for EKVX here?
A: 0.345

Q: Which relative viability does the source give for EMC-BAC-2 here?
A: 0.448

Q: With EPLC-272H as the cell line, how does the relative viability read?
A: 0.0698

Q: For H3255, which relative viability is on record?
A: 0.179

Q: For HARA, which relative viability is on record?
A: 0.0619

Q: For HCC-15, which relative viability is on record?
A: 0.0765

Q: Which relative viability does the source give for HCC-44 here?
A: 0.147

Q: With HCC-78 as the cell line, how does the relative viability read?
A: 0.193

Q: For HCC-366, which relative viability is on record?
A: 0.0175

Q: With HCC-827 as the cell line, how does the relative viability read?
A: 0.422

Q: How did the relative viability turn out when HOP-62 was run?
A: 0.0746

Q: For IA-LM, which relative viability is on record?
A: 0.0142

Q: LC-2-ad was tested. Which relative viability did it give?
A: 0.0828

Q: For LCLC-97TM1, which relative viability is on record?
A: 0.0702

Q: With LCLC-103H as the cell line, how does the relative viability read?
A: 0.27

Q: LOU-NH91 was tested. Which relative viability did it give?
A: 0.263

Q: For NCI-H441, which relative viability is on record?
A: 0.111

Q: NCI-H1299 was tested. Which relative viability did it give?
A: 0.156

Q: For NCI-H1703, which relative viability is on record?
A: 0.129

compound: CC(C)C[C@H](NC(=O)[C@H](CCc1ccccc1)NC(=O)CN1CCOCC1)C(=O)N[C@@H](Cc1ccccc1)C(=O)N[C@@H](CC(C)C)C(=O)[C@@]1(C)CO1 [Carfilzomib] + CS(=O)(=O)CCNCc1ccc(-c2ccc3ncnc(Nc4ccc(OCc5cccc(F)c5)c(Cl)c4)c3c2)o1 [Lapatinib] (partner 2 µM); test: as above; details: first compound 0.001 µM
Procedure, shortened: as §1

Q: Which relative viability does the source give for 201T here?
A: 1.02

Q: For A549, which relative viability is on record?
A: 0.885

Q: Which relative viability does the source give for A-427 here?
A: 0.925

Q: With ABC-1 as the cell line, how does the relative viability read?
A: 1.08

Q: With BEN as the cell line, how does the relative viability read?
A: 0.635

Q: How did the relative viability turn out when COR-L23 was run?
A: 0.906

Q: How did the relative viability turn out when COR-L 105 was run?
A: 0.348

Q: Calu-6 was tested. Which relative viability did it give?
A: 1.08

Q: How did the relative viability turn out when EBC-1 was run?
A: 0.228

Q: For EKVX, which relative viability is on record?
A: 0.221
